Assay results from patent publication US8211945B2, “Carba-sugar amine derivative and glycolipid metabolic disorder treating agent containing the same as active ingredient” (Seikagaku Corporation, priority 2001, dated 2012).

What was measured:
[1] = target: T1, human normal β-galactosidase (GP8) (Homo sapiens, UniProt P16278); assay: β-Galactosidase activity in model cells (knockout mouse fibroblasts with transferred gene) cultured 4 days with substance; type: cell-based; design: made in house; host or cells: SV40-immortalized β-galactosidase knockout mouse skin fibroblasts
T1 sequence (P16278 29-677): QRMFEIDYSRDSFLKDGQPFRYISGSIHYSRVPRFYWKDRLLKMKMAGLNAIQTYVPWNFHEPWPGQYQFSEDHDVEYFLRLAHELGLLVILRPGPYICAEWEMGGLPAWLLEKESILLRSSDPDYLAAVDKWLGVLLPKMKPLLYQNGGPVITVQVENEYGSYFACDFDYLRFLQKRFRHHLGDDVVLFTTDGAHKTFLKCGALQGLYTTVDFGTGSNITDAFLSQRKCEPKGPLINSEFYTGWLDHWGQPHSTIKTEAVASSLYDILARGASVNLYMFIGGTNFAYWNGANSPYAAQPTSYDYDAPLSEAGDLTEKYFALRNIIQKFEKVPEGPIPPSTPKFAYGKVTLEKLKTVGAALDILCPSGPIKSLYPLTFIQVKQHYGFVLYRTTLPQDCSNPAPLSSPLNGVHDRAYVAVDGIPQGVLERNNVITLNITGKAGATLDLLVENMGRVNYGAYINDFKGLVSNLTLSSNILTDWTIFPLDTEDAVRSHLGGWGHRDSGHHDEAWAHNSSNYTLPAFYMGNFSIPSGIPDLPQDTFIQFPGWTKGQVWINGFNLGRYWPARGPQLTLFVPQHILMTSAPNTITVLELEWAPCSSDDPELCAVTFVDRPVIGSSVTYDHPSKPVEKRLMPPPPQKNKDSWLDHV
Text: Cultured skin fibroblasts of a β-galactosidase-deficient knockout mouse was immortalized by introducing an SV40 viral gene, and enzyme genes integrated into pSV2neo and an expression vector were also introduced simultaneously, thereby establishing a model cell (Brain Dev., 23(5), 284-287, 2001). The genes used are human normal (GP8) and mutant β-galactosidase gene Y316C, G123R (infantile GM1-gangliosidosis), R201C (juvenile GM1-gangliosidosis), 151T, T82M, R201H, R263S, R457Q (adult GM1-gangliosidosis), W273L, Y83H, R482H and R482C (Morquio-B disease) (Hum. Genet., 93(2), 109-114, 1994).
As a control substance, 0.5 mM N-(n-butyl)-deoxygalactonojirimycin (NB-DGJ: The Journal of Biological Chemistry, 269, 27108-27114 (1994)) was used, and the substance 18 of the present invention was used in an amount of 0.2 μM.
Specifically, after culturing the model cell for 4 days using a cell culture medium (10% FCS DMEM) containing the substance 18 of the present invention, the resulting cells were recovered and diluted such that the amount of protein in the suspension became a predetermined level, and then enzyme activity in the diluted suspension was measured. Using 4-methylumbelliferyl-β-D-galactopyranoside as the fluorescent substrate, the enzyme activity during 30 minutes was measured at 37° C.

[2] = Safety observation during 1 week oral administration test in mice; details: about 1.4 mg per day orally
Description: That is, tap water containing 1 mM (about 0.28 mg/ml) of the substance 18 of the present invention was continuously administered for 1 week as drinking water to recombinant mice (3 month-old) prepared by transferring a human mutant β-galactosidase gene R201C into β-galactosidase deficient knockout mice. One week thereafter, the mice were sacrificed to excise the cerebrum, the cerebellum, the heart, the lungs, the liver, the spleen, the kidney, a muscle (femoral muscle) and plasma. Also, tail tissues were used for the purpose of verifying changes in the β-galactosidase activity in the same individual before and after the administration. Each organ was crushed under ice-cooling using a homogenizer, and then the suspension of crushed cells was centrifuged at 8,000×g for 30 minutes. Thereafter, the supernatant fraction was recovered and used as an enzyme solution. The amount of protein in this enzyme solution was measured by the Bradford method, and the β-galactosidase activity was measured. With regard to the measurement of β-galactosidase activity, the enzyme activity during 30 minutes was measured at 37° C. using 4-methylumbelliferyl-β-D-galactopyranoside as the fluorogenic substrate. […] Three animals were used in each group to calculate the mean value.

[3] = target: T1, human normal β-galactosidase (GP8); assay: Galactosidase inhibitory activity, enzyme from culture supernatant, 4-methylumbelliferyl-β-D-galactopyranoside substrate; type: biochemical; design: made in house; host or cells: SV40-immortalized β-galactosidase knockout mouse skin fibroblasts; Enzyme source was the supernatant after 24 h in NH4Cl medium, dialyzed and concentrated; details: 30 minutes
Description: Knockout mouse skin fibroblast introduced with a human normal β-galactosidase (GP8) cDNA (Biochem. Biophys. Res. Commun., 157(1), 238-244, 1988) and immortalized with an SV40 viral gene were cultured at 37° C. in an atmosphere of 5% CO2, using Dulbecco's modified Eagle's medium (to be referred to as “DMEM” hereinafter: manufactured by Gibco) containing 10% fetal calf serum (to be referred to as “FCS” hereinafter), and when the cells became 80% confluent, the medium was exchanged with FCS-free DMEM containing 10 mM of NH4Cl. After culturing for 24 hours, the supernatant was recovered and dialyzed against 10 mM phosphate buffer (pH=6.5) for 4 hours. Thereafter, the mixture was concentrated using VIVAPORE-20 (manufactured by Vivapore) and used as the enzyme source. Using 4-methylumbelliferyl-β-D-galactopyranoside as the fluorescent substrate, the enzyme activity during 30 minutes was measured in the presence or absence of the substance to be tested (Table 1). Final concentration of the substance 18 of the present invention was adjusted to 0.05, 0.125, 0.25, 0.5, 1, 2.5 or 5 μM.

For `CCCCN1C[C@H](O)[C@@H](O)[C@@H](O)[C@H]1CO` [Control, N-(n-butyl)-deoxygalactonojirimycin, reference compound], the “enzyme activity, Control” value ([1]; transferred gene GP8, control substance 0.5 mM NB-DGJ) was 74.94.
In the case of `CCCCCCCCN[C@@H]1C=C(CO)[C@H](O)C(O)[C@@H]1O` (stereo partly drawn) [Substance 18, N-octyl-5a-carba-α-L-arabino-hexo-5(5a)-enopyranosylamine], the health condition [2] is reported as “health condition was markedly good”, the “Relative ratio (×100%)” value ([1]; GP8, substance 18 vs control) is reported as 1.05 ×100% and the enzyme activity ([1]; transferred gene GP8, 0.2 μM, 4 days) is reported as 78.87. It also gave an activity at 0.05 µM ([3]; 0.050 umol/L substance) of 77%, an activity at 0.125 µM ([3]; 0.125 umol/L substance) of 59.5% and an activity at 0.25 µM ([3]; 0.250 umol/L substance) of 43.4%. For the same compound, the activity at 0.5 µM ([3]; 0.500 umol/L substance) was 35.7%, the activity at 1 µM ([3]; 1.000 umol/L substance) was 36% and the activity at 2.5 µM ([3]; 2.500 umol/L substance) was 18.7%. For the same compound, the activity at 5 µM ([3]; 5.000 umol/L substance) was 14.4%.
